Data from patent publication US10766855B2, “Hydroxamate triterpenoid derivatives” (VIVACELL BIOTECHNOLOGY ESPANA S.L., priority 2016, dated 2020).

Legend:
Erythropoietin (EPO) = assay: Plasma erythropoietin (EPO) levels in mice (ELISA); type: in vivo, mouse; settings: C57BL/6 male mice, i.p., 4 hours after treatment; compound VII 30 and 60 mg/kg, Betulinic acid 60 mg/kg
Procedure: EPO in plasma measured using a mouse EPO ELISA kit in C57BL/6 male mice administered with compound VII (30 mg/kg or 60 mg/kg) or betulinic acid (BA) (60 mg/kg) intraperitoneally. […] Data are expressed as mean±SEM (n=3).
Erythropoietin (EPO) is one of the earliest described and most sensitive HIF target genes; being positively regulated at the transcription level. Here, the ability of compound VII to regulated EPO levels in vivo was examined. Sixteen-week-old C57BL/6 male mice were treated intraperitoneally (i.p.) with Betulinic Acid (60 mg/kg) or compound VII (30 mg/kg or 60 mg/kg). Blood samples were taken under general anaesthesia 4 hours after treatment and the circulating levels of EPO in plasma were quantified using a mouse EPO ELISA kit (R&D Systems) according to manufacturer's instructions. EPO values represent the mean±SEM (n=3).

HIF-2α = HIF-2α stabilization in hIPCs (Western blot); type: cell-based, human; settings: increasing concentrations, 3 h
Procedure: Stimulation of human Islet-Derived Precursor Cells (hIPCs) with increasing concentrations of compound VII or with DFX (150 μM) during 3 h, and the expression of HIF-2α, PHD3 and β-actin determined by Western blots.
Since PDH2 and PDH3 also regulate the expression of HIF-2α, the effect of compound VII on HIF-2α stabilization in Human Islet-Derived Precursor Cells (hIPCs) obtained from Innoprot SL (Spain) (reference p10472) was investigated. hIPCs were stimulated with the increasing concentrations of compound VII or with DFX (150 μM) during 3 h. After that, proteins isolation and western blots were performed as in FIG. 3. The antibodies against HIF-2α (ab8365) and PHD3 (ab30782) were from Abcam (Cambrigde, UK), and the antibody anti-β-actin (AC-74) was purchased from Sigma-Aldrich (Saint Louis, Mo., USA). (FIG. 5).

STAT3 = STAT3 inhibition in HeLa-STAT3-Luc cells stimulated with IFN-γ; type: cell-based; settings: IFN-γ 25 IU/ml, 6 h
Procedure: The HeLa-STAT3-luc cells stably transfected with the plasmid 4×M67 pTATA TK-Luc. Cells (20×10^3 cells/ml) were seeded in 96-well plates, treated with increasing concentrations of the compounds II to XIV, and of comparative compound CDDO-Me, for 15 min and then stimulated with IFN-γ 25 IU/ml. After 6 h the luciferase activity in the cell lysates was measured as indicated above. […] The HaCaT-ARE-Luc cell line contains the Nqo1 Antioxidant Response Element (ARE)-Luc reporter plasmid. ARE is activated by all members of the CNC family of factors (Nrf1, Nrf2, Nrf3 and p45 NF-E2). The cells were cultivated in 96-well plates at the concentration of 25×10^3 cells/well in a CO2 incubator at 37° C. For induction of Nrf2 activation the cells were treated with increasing concentrations of the compounds II to XV, and of comparative compound CDDO-Me, for 6 h. As a positive control the cells were treated with 0.02 mM of the antioxidant Tert-butyl-hydroquinone (TBHQ). Luciferase activity in the cell lysates was measured as indicated above and the EC50 calculated (Table III). The CHO-TGR5-CRE-Luc cells stably transfected with the pTGR5 and CRE-Luc. The CRE-responsive luciferase construct encodes the firefly luciferase reporter gene under the control of a minimal (m)CMV promoter and tandem repeats of the CRE transcriptional response element (TRE) and is useful to monitor cAMP signaling pathways activated by TGR5 agonists. Cells (1×10^4/well) were seeded in 96-well plates, treated with increasing concentrations of the compounds II to XV and CDDO-Me, for 6 h. As a positive control the cells were treated with 10 μM of LCA (lithocholic acid). Luciferase activity in the cell lysates was measured as indicated above and the EC50 calculated (Table III).

3NP-lesioned mice = assay: 3-NP induced Huntington's disease model in mice; type: in vivo, mouse
Procedure: Striatal neurodegeneration was induced in 16-week-old C57BL/6 male mice (Harlan Ibérica, Barcelona, Spain) by six intraperitoneal (i.p.) injections of 3-nitropropionic acid (3NP) (30 mg/kg; one injection each every 12 h prepared in PBS). 3NP-treated animals and the non-lesioned control group (injected with PBS) were used for pharmacological studies with Betulinic acid (30 mg/Kg) and compound VII (30 mg/Kg). Treatments consisted of 5 i.p. injections every 24 h with […] the test compounds or vehicle (10% DMSO plus 6.2% Tween 20 in saline buffer), with the first injection 24 h prior the first 3NP injection and the rest of doses 30 min before the injections of 3NP. Mice were subjected to behavioral tests for determining their neurological status. General locomotor activity, the hindlimb clasping and dystonia, and the truncal dystonia were evaluated. All behavioral tests were conducted prior to drug injections to avoid acute effects of the compounds under investigation. […] were euthanized 12 h after the last injection of 3NP. Once euthanized, animals were dissected and their brains were rapidly removed. The right hemisphere was used to dissect the striatum, which was quickly frozen in RNAlater (Sigma-Aldrich, Germany) to analyzed inflammatory markers were by Real Time PCR. The left hemisphere was fixed in fresh 4% paraformaldehyde (in 0.1M phosphate buffered-saline) for 48 hours at 4° C. and embedded in paraffin wax for histological analysis.
For this test, intoxicated mice with 3-Nitropropionic acid (3-NP) were used for determining microglia activation and astrogliosis including a Control with non-intoxicated mice (3NP, 3NP+BA and 3NP+Compound VII). Iba-1 and glial fibrillary acidic protein (GFAP) expression were determined by immunostaining of brain sections through the different group of mice. Quantification of the different markers was performed with Image J software.
Total RNA was isolated from striata (3NP model) using RNeasy Lipid Tissue Mini Kit (Qiagen, GmbH). The total amount of RNA extracted was quantitated by spectrometry at 260 nm and its purity from the ratio between the absorbance values at 260 and 280 nm. Genomic DNA was removed to eliminate DNA contamination. Single-stranded complementary DNA was synthesized from up to 1 μg of total RNA (pool from at least 3 animals per group) using iScript™ cDNA Synthesis Kit (Bio-Rad, Hercules, Calif., USA). The reaction mixture was kept frozen at −20° C. until enzymatic amplification. The iQ™ SYBR Green Supermix (Bio-Rad) was used to quantify mRNA levels for COX-2, IL-6, IL-1β, and iNOS. […] Expression levels were calculated using the 2^−ΔΔCt method.

Structure (SMILES): C=C(C)[C@@H]1CC[C@]2(C(=O)NO)CC[C@]3(C)[C@H](CC[C@@H]4[C@@]5(C)CC[C@H](O)C(C)(C)[C@@H]5CC[C@]43C)[C@@H]12 [Compound VII, (3β) 3-Hydroxy-N-hydroxy-lup-20(29)-en-28-amide]
- circulating EPO plasma levels (Erythropoietin (EPO)): strongly increased
- HIF-2α expression (HIF-2α): stabilized HIF-2α expression
- expression of PHD3 (HIF-2α): without affecting the expression of PHD3
- IC50 (STAT3): > 50 µM
- mRNA expression for COX-2, IL-1β, IL-6 and iNOS in striatum (3NP-lesioned mice; 30 mg/kg, compared with 3NP+Vehicle): down regulated
- clinical symptoms (behavioral score) induced by 3-NP intoxication (3NP-lesioned mice; i.p., 30 mg/kg): clearly alleviated the clinical symptoms
- reduction in Nissl-stained cells (neuronal death) in striatum caused by 3NP (3NP-lesioned mice; i.p., 30 mg/kg): clearly prevented
- 3NP-induced microgliosis (Iba1) and astrogliosis (GFAP) (3NP-lesioned mice; i.p., immunohistochemistry): reduced 3NP-induced microgliosis and astrogliosis
